{
  "source": "patent EP0642787A2",
  "about": "“Cessation of tobacco use” (ELI LILLY AND COMPANY, priority 1993, dated 1995)",
  "key": {"5HT1A receptor [1]": {"test_system": "5HT1A receptor", "assay": "Serotonin syndrome test (antagonism of 8-OH-DPAT-induced signs)", "format": "in vivo, rats", "details": "exception at 1.0 or 10 mg/kg s.c. (dose not specified); 4 point scale 0-3"}, "5HT1A receptor [2]": {"test_system": "5HT1A receptor", "assay": "Serotonin syndrome test (antagonism of 8-OH-DPAT-induced signs)", "format": "in vivo, rats", "details": "4 point scale 0-3; for LLR score / FBP score / lower lip retraction (LLR) score / flat body posture (FBP) score: 8-OH-DPAT alone scores 3", "method": "Adult male rats are placed singly in clear plastic cages for behavioral observations. Preferably, the cages have metal screen lids and fresh sawdust covering the floor. The animals are adapted to the cages for a short period, and then the compounds to be tested are administered at doses and route determined by the experimenter, based on the probable potency of the test compounds. After 15 minutes, each rat is then given a subcutaneous injection of 0.1 mg/kg of 8-hydroxy-2-dipropylaminotetralin (8-OH-DPAT). Fifteen minutes after administration of the 8-OH-DPAT, the animals are evaluated for evidence of the following signs: reciprocal forepaw treading; Straub tail (rigid or corkscrew); lateral head weaving; hind limb abduction; resting tremor, especially of the head and forepaws; lower-lip retraction; and flat-body posture.\nThose signs are produced by 8-OH-DPAT, and the administration of 5HT1A antagonists is able to block or greatly attenuate the appearance of the signs."}, "5HT1A receptor [3]": {"molecular_target": "5HT1A receptor (Homo sapiens, UniProt P08908)", "sequence (P08908 whole entry)": "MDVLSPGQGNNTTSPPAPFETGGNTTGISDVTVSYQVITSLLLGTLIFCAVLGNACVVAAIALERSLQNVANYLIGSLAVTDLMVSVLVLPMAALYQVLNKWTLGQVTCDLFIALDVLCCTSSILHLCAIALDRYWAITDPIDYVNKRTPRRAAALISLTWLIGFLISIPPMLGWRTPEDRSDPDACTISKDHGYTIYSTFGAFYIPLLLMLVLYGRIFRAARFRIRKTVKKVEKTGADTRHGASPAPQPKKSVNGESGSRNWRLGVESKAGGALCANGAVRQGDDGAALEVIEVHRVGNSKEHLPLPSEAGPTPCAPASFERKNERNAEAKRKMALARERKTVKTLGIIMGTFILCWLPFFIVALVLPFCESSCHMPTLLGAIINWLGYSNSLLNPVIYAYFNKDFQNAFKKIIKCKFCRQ", "details": "partial agonist; cited from earlier work"}, "[4]": {"details": "3 mg/kg test compound s.c., then 8-OH-DPAT 0.1 mg/kg s.c."}},
  "data": [
    {"smiles": "OC(CN[C@@H]1C[C@H]2CC[C@@H]1C2)COc1cccc2[nH]ccc12", "note": "(relative stereo) [(exo)-1-(4-indolyloxy)-3-norbornylamino-2-propanol]", "values": [
      {"measurement": "LLR score at 20 minutes after administration of 8-OH-DPAT", "setting": "5HT1A receptor [1]", "result": 1.25},
      {"measurement": "LLR score", "setting": "5HT1A receptor [2]; 1 mg/kg test compound s.c.", "result": "≤ 1"},
      {"measurement": "FBP score", "setting": "5HT1A receptor [2]; 1.0 mg/kg test compound s.c.", "result": "≤ 0.5"},
      {"measurement": "FBP score", "setting": "5HT1A receptor [2]; 10 mg/kg test compound s.c.", "result": "≤ 0.5"},
      {"measurement": "LLR score", "setting": "5HT1A receptor [2]; 10 mg/kg test compound s.c.", "result": "≤ 1"}
    ]},
    {"smiles": "O=C(O)C(=O)O.OC(CNCCCCc1ccccc1)COc1cccc2[nH]ccc12", "note": "(stereo not shown) [1-(4-indolyloxy)-3-(4-phenylbutylamino)-2-propanol, oxalate salt]", "values": [
      {"measurement": "FBP score", "setting": "5HT1A receptor [2]; 10 mg/kg test compound s.c.", "result": 1.25},
      {"measurement": "peak LLR score", "setting": "5HT1A receptor [2]; 10 mg/kg test compound s.c., score quickly declined from its peak", "result": 2}
    ]},
    {"smiles": "OC(CNC1CCCCCC1)COc1cccc2[nH]ccc12", "note": "(stereo not shown) [1-(4-indolyloxy)-3-cycloheptylamino-2-propanol]", "values": [
      {"measurement": "LLR score", "setting": "5HT1A receptor [2]; 1 mg/kg test compound s.c.", "result": "≤ 1.75"},
      {"measurement": "lower lip retraction (LLR) score", "setting": "5HT1A receptor [2]; [4]", "result": "≤ 1.75"},
      {"measurement": "LLR score", "setting": "5HT1A receptor [2]; 10 mg/kg test compound s.c.", "result": 0},
      {"measurement": "FBP score", "setting": "5HT1A receptor [2]; doses of 1 mg/kg and above s.c.", "result": "below 1"}
    ]},
    {"smiles": "O=C(O)CCC(=O)O.O[C@@H](CNC1CCCCC1)COc1cccc2[nH]ccc12", "note": "[(S)-(-)-1-(4-indolyloxy)-3-cyclohexylamino-2-propanol, butanedioate salt]", "values": [
      {"measurement": "flat body posture (FBP) score", "setting": "5HT1A receptor [2]; 0.3 mg/kg test compound s.c.", "result": "below 2"},
      {"measurement": "lower lip retraction (LLR) score", "setting": "5HT1A receptor [2]; 0.3 mg/kg test compound s.c.", "result": "below 2"},
      {"measurement": "flat body posture (FBP) score", "setting": "5HT1A receptor [2]; [4]", "result": "completely abolished"},
      {"measurement": "lower lip retraction (LLR) score", "setting": "5HT1A receptor [2]; [4]", "result": "completely abolished"}
    ]},
    {"smiles": "O=C1CC2(CCCC2)CC(=O)N1CCCCN1CCN(c2ncccn2)CC1", "note": "[Buspirone]", "values": [
      {"measurement": "antagonistic activity at the 5HT1A receptor", "setting": "5HT1A receptor [3]", "result": "about 30%"}
    ]}
  ]
}
